Measured values as given in patent US11136296B2, “Substituted N-arylethyl-2-arylquinoline-4-carboxamides and use thereof” (Bayer Aktiengesellschaft, priority 2017, dated 2021).

Target: FP receptor (Homo sapiens (Human), UniProt P43088)
Experiment: In vitro test of inhibition of human FP receptor activity (PGF2α-induced calcium flux in FP-expressing CHEM1 cells)
Assay type: cell-based
Settings: PGF2α-induced (2 nM) calcium flux in FP-expressing CHEM1 cells; some as mean values from multiple determinations
Text: Table 1 below lists the IC50 values from this assay for individual working examples of the invention (some as mean values from multiple independent individual determinations): […]

Sequence of FP receptor (P43088 whole entry): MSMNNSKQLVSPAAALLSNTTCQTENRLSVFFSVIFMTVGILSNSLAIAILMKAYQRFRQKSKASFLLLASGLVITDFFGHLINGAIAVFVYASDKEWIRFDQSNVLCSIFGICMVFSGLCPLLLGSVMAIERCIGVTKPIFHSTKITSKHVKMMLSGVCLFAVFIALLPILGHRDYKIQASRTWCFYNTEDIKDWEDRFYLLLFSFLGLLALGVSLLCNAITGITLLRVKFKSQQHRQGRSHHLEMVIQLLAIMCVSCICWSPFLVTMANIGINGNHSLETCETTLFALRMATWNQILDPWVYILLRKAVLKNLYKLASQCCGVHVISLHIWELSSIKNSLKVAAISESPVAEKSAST

Row | SMILES | IC50
1 | Cc1c(-c2ccccc2)nc2ccc(Br)cc2c1C(=O)NCC(C(=O)O)c1ccccc1 (racemic) [Example 1, (+/−)-3-{[(6-Bromo-3-methyl-2-phenylquinolin-4-yl)carbonyl]amino}-2-phenylpropanoic Acid] | 130 nM
2 | Cc1c(-c2ccccc2)nc2ccc(Br)cc2c1C(=O)NCC(C(=O)O)c1ccc(F)cc1 (racemic) [Example 10, (+/−)-3-{[(6-Bromo-3-methyl-2-phenylquinolin-4-yl)carbonyl]amino}-2-(4-fluorophenyl)propanoic Acid] | 320 nM
3 | Cc1c(-c2ccccc2)nc2ccc(Br)cc2c1C(=O)NCC(C)(C(=O)O)c1ccccc1 (racemic) [Example 13, (+/−)-3-{[(6-Bromo-3-methyl-2-phenylquinolin-4-yl)carbonyl]amino}-2-methyl-2-phenylpropanoic Acid] | 94 nM
4 | CCC(CNC(=O)c1c(C)c(-c2ccccc2)nc2ccc(Br)cc12)(C(=O)O)c1ccccc1 (racemic) [Example 16, (+/−)-2-({[(6-Bromo-3-methyl-2-phenylquinolin-4-yl)carbonyl]amino}methyl)-2-phenylbutanoic Acid] | 170 nM
5 | Cc1c(-c2ccccc2)nc2ccc(Br)cc2c1C(=O)NCC(O)(C(=O)O)c1ccccc1 (racemic) [Example 19, (+/−)-3-{[(6-Bromo-3-methyl-2-phenylquinolin-4-yl)carbonyl]amino}-2-hydroxy-2-phenylpropanoic Acid] | 150 nM
6 | Cc1c(-c2ccccc2)nc2ccc(Br)cc2c1C(=O)NCC(C(=O)O)c1cccc(C(F)(F)F)c1 (racemic) [Example 22, (+/−)-3-{[(6-Bromo-3-methyl-2-phenylquinolin-4-yl)carbonyl]amino}-2-[3-(trifluoromethyl)phenyl]propanoic Acid] | 76 nM
7 | Cc1c(-c2ccccc2)nc2ccc(Br)cc2c1C(=O)NCC(C(=O)O)c1ccc2c(c1)OCO2 (racemic) [Example 23, (+/−)-2-(1,3-Benzodioxol-5-yl)-3-{[(6-bromo-3-methyl-2-phenylquinolin-4-yl)carbonyl]amino}propanoic Acid] | 530 nM
8 | Cc1c(-c2ccccc2)nc2ccc(Br)cc2c1C(=O)NCC(C)(C(=O)O)c1ncccc1Cl (racemic) [Example 26, (+/−)-3-{[(6-Bromo-3-methyl-2-phenylquinolin-4-yl)carbonyl]amino}-2-(3-chloropyridin-2-yl)-2-methylpropanoic Acid] | 44 nM
9 | Cc1c(-c2ccccc2)nc2ccc(Br)cc2c1C(=O)NCC(C)(C(=O)O)c1ccccc1F (racemic) [Example 29, (+/−)-3-{[(6-Bromo-3-methyl-2-phenylquinolin-4-yl)carbonyl]amino}-2-(2-fluorophenyl)-2-methylpropanoic Acid] | 140 nM
10 | Cc1c(-c2ccccc2)nc2ccc(Br)cc2c1C(=O)NCC(C)(C(=O)O)c1c(F)cccc1F (racemic) [Example 32, (+/−)-3-{[(6-Bromo-3-methyl-2-phenylquinolin-4-yl)carbonyl]amino}-2-(2,6-difluorophenyl)-2-methylpropanoic Acid] | 150 nM
11 | Cc1c(-c2ccccc2)nc2ccc(Br)cc2c1C(=O)NCC(C)(C(=O)O)c1ccccc1Cl (racemic) [Example 35, (+/−)-3-{[(6-Bromo-3-methyl-2-phenylquinolin-4-yl)carbonyl]amino}-2-(2-chlorophenyl)-2-methylpropanoic Acid] | 190 nM
12 | Cc1c(-c2ccccc2)nc2ccc(Br)cc2c1C(=O)NCC(F)(C(=O)O)c1ccccc1 (racemic) [Example 38, (+/−)-3-{[(6-Bromo-3-methyl-2-phenylquinolin-4-yl)carbonyl]amino}-2-fluoro-2-phenylpropanoic Acid] | 47 nM
13 | Cc1c(-c2ccccc2)nc2ccc(Br)cc2c1C(=O)NCC(C)(C(=O)O)c1cccc(C(F)(F)F)c1 (racemic) [Example 41, (+/−)-3-{[(6-Bromo-3-methyl-2-phenylquinolin-4-yl)carbonyl]amino}-2-methyl-2-[3-(trifluoromethyl)phenyl]propanoic Acid] | 130 nM
14 | Cc1c(-c2ccccc2)nc2ccc(Br)cc2c1C(=O)NCC(C(=O)O)c1cccc(Cl)c1 (racemic) [Example 47, (+/−)-3-{[(6-Bromo-3-methyl-2-phenylquinolin-4-yl)carbonyl]amino}-2-(3-chlorophenyl)propanoic Acid] | 43 nM
15 | Cc1cccc(C(CNC(=O)c2c(C)c(-c3ccccc3)nc3ccc(Br)cc23)C(=O)O)c1 (racemic) [Example 50, (+/−)-3-{[(6-Bromo-3-methyl-2-phenylquinolin-4-yl)carbonyl]amino}-2-(3-methylphenyl)propanoic Acid] | 79 nM
16 | COc1ccccc1C(O)(CNC(=O)c1c(C)c(-c2ccccc2)nc2ccc(Br)cc12)C(=O)O (racemic) [Example 53, (+/−)-3-{[(6-Bromo-3-methyl-2-phenylquinolin-4-yl)carbonyl]amino}-2-hydroxy-2-(2-methoxyphenyl)propanoic Acid] | 180 nM
17 | Cc1c(-c2ccccc2)nc2ccc(Br)cc2c1C(=O)NCC(c1ccccc1Cl)C(C)(C)C(=O)O (racemic) [Example 111, (+/−)-4-{[(6-Bromo-3-methyl-2-phenylquinolin-4-yl)carbonyl]amino}-3-(2-chlorophenyl)-2,2-dimethylbutanoic Acid] | 89 nM

Results, then the compound that gave them:

Row | IC50 | SMILES
18 | 24 nM | COc1ccccc1C(CNC(=O)c1c(C)c(-c2ccccc2)nc2ccc(Br)cc12)C(=O)O (racemic) [Example 7, (+/−)-3-{[(6-Bromo-3-methyl-2-phenylquinolin-4-yl)carbonyl]amino}-2-(2-methoxyphenyl)propanoic Acid]
19 | 190 nM | COc1cccc(C(CNC(=O)c2c(C)c(-c3ccccc3)nc3ccc(Br)cc23)C(=O)O)c1 (racemic) [Example 44, (+/−)-3-{[(6-Bromo-3-methyl-2-phenylquinolin-4-yl)carbonyl]amino}-2-(3-methoxyphenyl)propanoic Acid]
20 | 21 nM | COc1cccc(F)c1C(CNC(=O)c1c(C)c(-c2ccccc2)nc2ccc(Br)cc12)C(=O)O (racemic) [Example 56, (+/−)-3-{[(6-Bromo-3-methyl-2-phenylquinolin-4-yl)carbonyl]amino}-2-(2-fluoro-6-methoxyphenyl)propanoic Acid]
21 | 340 nM | Cc1c(-c2ccccc2)nc2ccc(Br)cc2c1C(=O)NCC(CC(=O)O)c1ccccc1 (racemic) [Example 63, (+/−)-4-{[(6-Bromo-3-methyl-2-phenylquinolin-4-yl)carbonyl]amino}-3-phenylbutanoic Acid]
22 | 500 nM | Cc1c(-c2ccccc2)nc2ccc(Br)cc2c1C(=O)NCC(CC(=O)O)c1ccc(Cl)cc1 (racemic) [Example 66, (+/−)-4-{[(6-Bromo-3-methyl-2-phenylquinolin-4-yl)carbonyl]amino}-3-(4-chlorophenyl)butanoic Acid]
23 | 45 nM | Cc1c(-c2ccccc2)nc2ccc(Br)cc2c1C(=O)NCC(CC(=O)O)c1cccc(Cl)c1 (racemic) [Example 72, (+/−)-4-{[(6-Bromo-3-methyl-2-phenylquinolin-4-yl)carbonyl]amino}-3-(3-chlorophenyl)butanoic Acid]
24 | 69 nM | Cc1ccccc1C(CNC(=O)c1c(C)c(-c2ccccc2)nc2ccc(Br)cc12)CC(=O)O (racemic) [Example 75, (+/−)-4-{[(6-Bromo-3-methyl-2-phenylquinolin-4-yl)carbonyl]amino}-3-(2-methylphenyl)butanoic Acid]
25 | 100 nM | Cc1c(-c2ccccc2)nc2ccc(Br)cc2c1C(=O)NCC(CC(=O)O)c1c(Cl)cccc1Cl (racemic) [Example 78, (+/−)-4-{[(6-Bromo-3-methyl-2-phenylquinolin-4-yl)carbonyl]amino}-3-(2,6-dichlorophenyl)butanoic Acid]
26 | 16 nM | Cc1c(-c2ccccc2)nc2ccc(Br)cc2c1C(=O)NCC(C)(CC(=O)O)c1ncccc1Cl (racemic) [Example 84, (+/−)-4-{[(6-Bromo-3-methyl-2-phenylquinolin-4-yl)carbonyl]amino}-3-(3-chloropyridin-2-yl)-3-methylbutanoic Acid]
27 | 23 nM | Cc1c(-c2ccccc2)nc2ccc(Br)cc2c1C(=O)NCC(CC(=O)O)c1c(F)cccc1Cl (racemic) [Example 87, (+/−)-4-{[(6-Bromo-3-methyl-2-phenylquinolin-4-yl)carbonyl]amino}-3-(2-chloro-6-fluorophenyl)butanoic Acid]
28 | 470 nM | Cc1ccc(C(CNC(=O)c2c(C)c(-c3ccccc3)nc3ccc(Br)cc23)CC(=O)O)cc1 (racemic) [Example 90, (+/−)-4-{[(6-Bromo-3-methyl-2-phenylquinolin-4-yl)carbonyl]amino}-3-(4-methylphenyl)butanoic Acid]
29 | 80 nM | Cc1cccc(C(CNC(=O)c2c(C)c(-c3ccccc3)nc3ccc(Br)cc23)CC(=O)O)c1 (racemic) [Example 93, (+/−)-4-{[(6-Bromo-3-methyl-2-phenylquinolin-4-yl)carbonyl]amino}-3-(3-methylphenyl)butanoic Acid]
30 | 28 nM | Cc1c(-c2ccccc2)nc2ccc(Br)cc2c1C(=O)NCC(CC(=O)O)c1ccccc1OC(F)(F)F (racemic) [Example 99, (+/−)-4-{[(6-Bromo-3-methyl-2-phenylquinolin-4-yl)carbonyl]amino}-3-[2-(trifluoromethoxy)phenyl]butanoic Acid]
31 | 460 nM | Cc1c(-c2ccccc2)nc2ccc(Br)cc2c1C(=O)NCC(CC(=O)O)c1ccccn1 (racemic) [Example 102, (+/−)-4-{[(6-Bromo-3-methyl-2-phenylquinolin-4-yl)carbonyl]amino}-3-(pyridin-2-yl)butanoic Acid]
32 | 92 nM | Cc1c(-c2ccccc2)nc2ccc(Br)cc2c1C(=O)NCC(CC(=O)O)c1ccccc1C(F)(F)F (racemic) [Example 105, (+/−)-4-{[(6-Bromo-3-methyl-2-phenylquinolin-4-yl)carbonyl]amino}-3-[2-(trifluoromethyl)phenyl]butanoic Acid]
33 | 78 nM | COc1cccnc1C(CNC(=O)c1c(C)c(-c2ccccc2)nc2ccc(Br)cc12)CC(=O)O (racemic) [Example 108, (+/−)-4-{[(6-Bromo-3-methyl-2-phenylquinolin-4-yl)carbonyl]amino}-3-(3-methoxypyridin-2-yl)butanoic Acid]
